Data as given in patent US11124518B2, “L,2-dihydro-3H-pyrazolo[3,4-D]pyrimidin-3-one analogs” (Recurium IP Holdings, LLC, priority 2017, dated 2021).
pIC50: −log10 of the molar value. Where a name gives a salt, the structure may show the parent alone.

Experiments:
[1] = test system: SW480 cells; assay: SW480 Cellular Proliferation Assay (CellTiter-Glo); assay type: cell-based; conditions: Homo sapiens, 96 h, 4 days
Protocol: (§1) Cells were treated with compounds diluted in DMSO and a 10 point 3-fold serial dilutions. Plates were placed in 37° C., 5% CO2 for to incubate for 4 days. Before they were developed by adding 100 μL of CellTiter-Glo reagent (Promega) to the assay plate, plates were shaken briefly for 2 mins and allowed to incubate at RT for 60 mins. The bottom of the plates was pasted with white back seal and luminescence was recorded with Enspire or Envision.

[2] = test system: H23 cells; assay: H23 Cellular Proliferation Assay (CellTiter-Glo); assay type: cell-based; conditions: Homo sapiens, NCI-H23, 96 h, 4 days
Protocol: as §1, with “a 9” for “a 10”, “point 5-fold” for “point 3-fold”, “CO2” for “CO2 for”, “for 10” for “for 60”, “mins. The plates are read with a M5e plate reader according to CellTiter-Glo protocol. The GraphPad Prism software was used to get IC50 values.” for “mins.”

[3] = molecular target: Wee1 kinase (Homo sapiens (Human), UniProt P30291); assay: Wee1 Binding Assay (FRET); conditions: Wee1 kinase 2 nM, tracer 178 50 nM, 60 min at RT, read-out: Wee1 Enzymatic IC50
Wee1 kinase, sequence (P30291 whole entry): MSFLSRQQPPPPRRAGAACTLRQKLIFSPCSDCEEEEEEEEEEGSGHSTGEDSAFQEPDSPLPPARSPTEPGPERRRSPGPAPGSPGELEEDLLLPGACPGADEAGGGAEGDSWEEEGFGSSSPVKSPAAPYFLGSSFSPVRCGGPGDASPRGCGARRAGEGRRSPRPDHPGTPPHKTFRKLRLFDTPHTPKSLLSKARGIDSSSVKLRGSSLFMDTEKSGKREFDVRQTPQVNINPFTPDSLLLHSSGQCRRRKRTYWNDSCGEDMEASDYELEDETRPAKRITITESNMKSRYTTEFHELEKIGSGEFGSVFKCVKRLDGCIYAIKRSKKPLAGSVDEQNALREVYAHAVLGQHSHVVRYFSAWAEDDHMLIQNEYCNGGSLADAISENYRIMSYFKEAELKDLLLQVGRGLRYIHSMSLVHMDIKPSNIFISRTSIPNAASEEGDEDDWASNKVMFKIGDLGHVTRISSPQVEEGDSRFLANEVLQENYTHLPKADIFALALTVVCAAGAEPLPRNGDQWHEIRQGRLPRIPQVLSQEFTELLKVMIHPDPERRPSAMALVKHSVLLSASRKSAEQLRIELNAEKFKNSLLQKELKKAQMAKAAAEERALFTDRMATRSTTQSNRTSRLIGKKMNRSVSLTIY
Protocol: Wee 1 kinase was determined by using Flurorescence Resonance Energy Transfer (FRET) assay. […] The plate was shaken for 30 seconds, incubated for 60 min at RT, and recorded on fluorescence plate reader.

| pIC50 [1] | pIC50 [3] | SMILES | pIC50 [2] |
| --- | --- | --- | --- |
| 6.00 to 7.00 | – | C=CCn1c(=O)c2cnc(Nc3ccc(N4CCN(C)CC4)cc3)nc2n1-c1cccc(C(C)(C)O)n1 [AZD1775, 2-allyl-1-(6-(2-hydroxypropan-2-yl)pyridin-2-yl)-6-(4-(4-methylpiperazin-1-yl)phenylamino)-1,2-dihydropyrazolo[3,4-d]pyrimidin-3-one, reference compound] | 6.00 to 7.00 |
| < 6.00 | > 8.00 | C=CCn1c(=O)c2cnc(Nc3ccc4c(c3)CNCC43CC3)nc2n1-c1cccc(C(C)(C)O)n1 [Example 2, 2-Alyl-6-((2′,3′-dihydro-1′H-spiro[cyclopropane-1,4′-isoquinolin]-7′-yl)amino)-1-(6-(2-hydroxypropan-2-yl)pyridin-2-yl)-1,2-dihydro-3H-pyrazolo[3,4-d]pyrimidin-3-one hydrochloride] | > 7.00 |
| 6.00 to 7.00 | > 8.00 | C=CCn1c(=O)c2cnc(Nc3ccc4c(c3)CN(C)CC4)nc2n1-c1cccc(C(C)(C)O)n1 [Example 5, 2-Allyl-1-(6-(2-hydroxypropan-2-yl)pyridin-2-yl)-6-((2-methyl-1,2,3,4-tetrahydroisoquinolin-7-yl)amino)-1,2-dihydro-3H-pyrazolo[3,4-d]pyrimidin-3-one] | > 7.00 |
| – | > 8.00 | C=CCn1c(=O)c2cnc(Nc3ccc4c(c3)CN(CC)CC4)nc2n1-c1cccc(C(C)(C)O)n1 [Example 7, 2-Allyl-6-((2-ethyl-1,2,3,4-tetrahydroisoquinolin-7-yl)amino)-1-(6-(2-hydroxypropan-2-yl)pyridin-2-yl)-1,2-dihydro-3H-pyrazolo[3,4-d]pyrimidin-3-one] | 6.00 to 7.00 |
| 6.00 to 7.00 | > 8.00 | C=CCn1c(=O)c2cnc(Nc3ccc4c(c3)CN(S(C)(=O)=O)CC4)nc2n1-c1cccc(C(C)(C)O)n1 [Example 9, 2-Allyl-1-(6-(2-hydroxypropan-2-yl)pyridin-2-yl)-6-((2-(methylsulfonyl)-1,2,3,4-tetrahydroisoquinolin-7-yl)amino)-1,2-dihydro-3H-pyrazolo[3,4-d]pyrimidin-3-one] | – |
| – | > 8.00 | C=CCn1c(=O)c2cnc(Nc3ccc4c(c3)CCN(C3COC3)C4)nc2n1-c1cccc(C(C)(C)O)n1 [Example 18, 2-Allyl-1-(6-(2-hydroxypropan-2-yl)pyridin-2-yl)-6-((2-(oxetan-3-yl)-1,2,3,4-tetrahydroisoquinolin-6-yl)amino)-1,2-dihydro-3H-pyrazolo[3,4-d]pyrimidin-3-one] | 6.00 to 7.00 |
| – | > 8.00 | C=CCn1c(=O)c2cnc(Nc3ccc4c(c3)CNC4)nc2n1-c1cccc(C(C)(C)O)n1 [Example 21, 2-Allyl-1-(6-(2-hydroxypropan-2-yl)pyridin-2-yl)-6-(isoindolin-5-ylamino)-1,2-dihydro-3H-pyrazolo[3,4-d]pyrimidin-3-one hydrogen chloride] | 6.00 to 7.00 |
| – | > 8.00 | C=CCn1c(=O)c2cnc(Nc3ccc4c(c3)CN(C)C4)nc2n1-c1cccc(C(C)(C)O)n1 [Example 23, 2-Allyl-1-(6-(2-hydroxypropan-2-yl)pyridin-2-yl)-6-((2-methylisoindolin-5-yl)amino)-1,2-dihydro-3H-pyrazolo[3,4-d]pyrimidin-3-one] | 6.00 to 7.00 |
| – | > 8.00 | C=CCn1c(=O)c2cnc(Nc3ccc4c(c3)CNCC4(F)F)nc2n1-c1cccc(C(C)(C)O)n1 [Example 28, 2-Allyl-6-((4,4-difluoro-1,2,3,4-tetrahydroisoquinolin-7-yl)amino)-1-(6-(2-hydroxypropan-2-yl)pyridin-2-yl)-1,2-dihydro-3H-pyrazolo[3,4-d]pyrimidin-3-one hydrogen chloride] | 6.00 to 7.00 |

| SMILES | pIC50 [1] | pIC50 [3] | pIC50 [2] |
| --- | --- | --- | --- |
| C=CCn1c(=O)c2cnc(Nc3ccc4c(c3)CN(C)CC43CC3)nc2n1-c1cccc(C(C)(C)O)n1 [Example 1, 2-Allyl-1-(6-(2-hydroxypropan-2-yl)pyridin-2-yl)-6-((2′-methyl-2′,3′-dihydro-1′H-spiro-[cyclopropane-1,4′-isoquinolin]-7′-yl)amino)-1,2-dihydro-3H-pyrazolo[3,4-d]pyrimidin-3-one] | 6.00 to 7.00 | – | > 7.00 |
